The target of one test is T1, human glucagon receptor (Homo sapiens, UniProt P47871).
T1 construct: made in house; host or cells: FreeStyle CHO cells, transient transfection with pMSRαneo/hGCGR; membrane fraction (35,000 rpm pellet)
T1 sequence (P47871 26-477): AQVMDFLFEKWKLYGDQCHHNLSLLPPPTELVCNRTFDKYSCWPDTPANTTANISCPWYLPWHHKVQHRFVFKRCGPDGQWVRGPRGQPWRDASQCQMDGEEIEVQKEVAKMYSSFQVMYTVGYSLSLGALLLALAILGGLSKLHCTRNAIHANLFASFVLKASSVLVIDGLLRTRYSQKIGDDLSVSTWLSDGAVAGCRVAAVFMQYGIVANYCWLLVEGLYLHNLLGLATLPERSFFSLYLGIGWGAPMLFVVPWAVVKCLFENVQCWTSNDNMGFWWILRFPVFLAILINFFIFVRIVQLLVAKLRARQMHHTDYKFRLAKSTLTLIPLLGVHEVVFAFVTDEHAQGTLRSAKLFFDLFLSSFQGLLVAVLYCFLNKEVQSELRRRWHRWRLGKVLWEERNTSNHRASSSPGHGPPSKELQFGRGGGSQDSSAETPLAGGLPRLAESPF
Kind of test: Glucagon binding inhibitory activity ([125I]-glucagon binding to glucagon receptor membrane protein). The note with it: test compound 10 μM; 0.4% DMSO = 0%, non-labeled glucagon 1 μM = 100%. The essentials: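 Receptor source was a membrane fraction of transiently transfected CHO cells bearing human receptor; 90 min room-temperature binding, filtration harvest, scintillation counting.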
In the case of `Cc1c(C(Nc2ccc(C(=O)N(C)CCC(=O)O)cc2)C(C)C)oc2ccc(OCc3ccccc3)cc12` (stereo not shown) [Example A86, 3-[{[4-({1-[5-(benzyloxy)-3-methyl-1-benzofuran-2-yl]-2-methylpropyl}amino)phenyl]carbonyl}(methyl)amino]propanoic acid], the “inhibitory rate (%) at 10 μM” value came to 89%.
Still for that read-out and setting: to `Cc1c(C(Nc2ccc(C(=O)N(C)CCC(=O)O)cc2)C2CCCC2)oc2ccc(F)cc12` (stereo not shown) [Example A69] belongs 89%.

Still in this test, the particulars now being: test compound 10 μM; 0.4% DMSO = 0%, non-labeled glucagon 1 μM = 100%; read-out: inhibitory rate (%) at 10 μM.
Consider `COc1ccc2c(C(Nc3ccc(C(=O)N(C)CCC(=O)O)cc3)C3CCCCC3)c(C)oc2c1` (stereo not shown) [Example A215, 3-{[(4-{[cyclohexyl(6-methoxy-2-methyl-1-benzofuran-3-yl)methyl]amino}phenyl)carbonyl](methyl)amino}propanoic acid], for which the inhibition at 10 µM was determined as 72%.
On the same count and under the same terms, the result for `CCNC(=O)Nc1ccc2oc(C(Nc3ccc(C(=O)N(C)CCC(=O)O)cc3)C3CCCCC3)c(C)c2c1` (stereo not shown) [Example A115, 3-[({4-[(cyclohexyl{5-[(ethylcarbamoyl)amino]-3-methyl-1-benzofuran-2-yl}methyl)amino]phenyl}carbonyl)(methyl)amino]propanoic acid] reads 53%.
On to `Cc1c(C(CC(C)C)Nc2ccc(C(=O)N(C)CCC(=O)O)cc2)oc2ccc(OCc3ccccc3)cc12` (stereo not shown) [Example A159, 3-[{[4-({1-[5-(benzyloxy)-3-methyl-1-benzofuran-2-yl]-3-methylbutyl}amino)phenyl]carbonyl}(methyl)amino]propanoic acid], for which the inhibition at 10 µM stood at 74%.
Same read-out and setting: the result for `Cc1cc(F)ccc1-n1cc(C(Nc2ccc(C(=O)N(C)CCC(=O)O)cc2)C2CCCCC2)c(C)n1` (stereo not shown) [Example 22, 3-[{[4-({[1-(4-fluoro-2-methylphenyl)-3-methyl-1H-pyrazol-4-yl](cyclohexyl)methyl}amino)phenyl]carbonyl}(methyl)amino]-propanoic acid] reads 61%; that for `COCCCCC(Nc1ccc(C(=O)NCCC(=O)O)cc1)c1oc2ccc(OC)cc2c1C` (stereo not shown) [Example A123, 3-{[(4-{[5-methoxy-1-(5-methoxy-3-methyl-1-benzofuran-2-yl)pentyl]amino}phenyl)carbonyl]amino}propanoic acid], 71%.
For `Cc1c(C(Nc2ccc(C(=O)N(C)CCC(=O)O)cc2)C2CCCCC2)oc2ccc(NS(=O)(=O)c3ccccc3)cc12` (stereo not shown) [Example A130, 3-[({4-[(cyclohexyl{3-methyl-5-[(phenylsulfonyl)amino]-1-benzofuran-2-yl}methyl)amino]phenyl}carbonyl)(methyl)amino]propanoic acid], the inhibition at 10 µM turned out to be 76%.
For the compound `COc1ccc2cc(C(Nc3ccc(C(=O)NCCC(=O)O)cc3)C3CCCCC3)oc2c1` (stereo not shown) [Example A35, 3-{[(4-{[cyclohexyl(6-methoxy-1-benzofuran-2-yl)methyl]amino}phenyl)carbonyl]amino}propanoic acid], the inhibition at 10 µM came out at 71%.
Regarding `Cc1c(C(Nc2ccc(C(=O)N(C)CCC(=O)O)cc2)C(C)C)oc2ccc(OC3CCOCC3)cc12` (stereo not shown) [Example A180, 3-(methyl{[4-({2-methyl-1-[3-methyl-5-(tetrahydro-2H-pyran-4-yloxy)-1-benzofuran-2-yl]propyl}amino)phenyl]carbonyl}amino)propanoic acid], the inhibition at 10 µM was determined as 83%.
On to `Cc1c(C(Nc2ccc(C(=O)N(C)CCC(=O)O)cc2)C2CCCCC2)sc2cnccc12` (stereo not shown) [Example A136, 3-{[(4-{[cyclohexyl(3-methylthieno[2,3-c]pyridin-2-yl)methyl]amino}phenyl)carbonyl](methyl)amino}propanoic acid], for which the inhibition at 10 µM turned out to be 62%.
With `COc1cccc(-n2cc(C)c(C(Nc3ccc(C(=O)N(C)CCC(=O)O)cc3)C3CCCCC3)n2)c1` (stereo not shown) [Example 75, 3-[{[4-({cyclohexyl[1-(3-methoxyphenyl)-4-methyl-1H-pyrazol-3-yl]methyl}amino)phenyl]carbonyl}(methyl)amino]propanoic acid], the inhibition at 10 µM amounted to 61%.
As for `COc1ccc2oc(C(CC(C)C)Nc3ccc(C(=O)N(C)CCC(=O)O)cc3)c(C)c2c1` (stereo not shown) [Example A93, 3-{[(4-{[1-(5-methoxy-3-methyl-1-benzofuran-2-yl)-3-methylbutyl]amino}phenyl)carbonyl](methyl)amino}propanoic acid], the inhibition at 10 µM amounted to 70%.
Turning to `COc1ccc(-n2cc(C(CC(C)C)Nc3ccc(C(=O)NCCC(=O)O)cc3)c(C3CC3)n2)cc1` (stereo not shown) [Example 44, 3-({[4-({1-[3-cyclopropyl-1-(4-methoxyphenyl)-1H-pyrazol-4-yl]-3-methylbutyl}amino)phenyl]carbonyl}amino)propanoic acid], the inhibition at 10 µM came out at 69%.
For the compound `Cc1c(C(Nc2ccc(C(=O)NCCC(=O)O)cc2)C2CCCCC2)oc2cc(F)ccc12` (stereo not shown) [Example A96, 3-{[(4-{[cyclohexyl(6-fluoro-3-methyl-1-benzofuran-2-yl)methyl]amino}phenyl)carbonyl]amino}propanoic acid], the inhibition at 10 µM was found to be 76%.
The same measure, in the same setting: to `CCCCCCC(Nc1ccc(C(=O)NCCC(=O)O)cc1)c1oc2ccc(OC)cc2c1C` (stereo not shown) [Example A118, 3-{[(4-{[1-(5-methoxy-3-methyl-1-benzofuran-2-yl)heptyl]amino}phenyl)carbonyl]amino}propanoic acid] belongs 70%; to `O=C(O)CCNC(=O)c1ccc(NC(c2cn(-c3ccc(C(F)(F)F)cn3)nc2CCc2ccccc2)C2CCCCC2)cc1` (stereo not shown) [Example 11, 3-[({4-[(cyclohexyl{3-(2-phenylethyl)-1-[5-(trifluoromethyl)pyridin-2-yl]-1H-pyrazol-4-yl}methyl)amino]phenyl}carbonyl)amino]propanoic acid], 73%; to `Cc1c(C(Nc2ccc(C(=O)N(C)CCC(=O)O)cc2)C2CCCCC2)oc2ccc(OCc3ccccc3)cc12` (stereo not shown) [Example A154, 3-[{[4-({[5-(benzyloxy)-3-methyl-1-benzofuran-2-yl](cyclohexyl)methyl}amino)phenyl]carbonyl}(methyl)amino]-propanoic acid], 82%.
On to `Cc1c(C(Nc2ccc(C(=O)N(C)CCC(=O)O)cn2)C(C)C)oc2ccc(OCC3CC3)cc12` (stereo not shown) [Example A211, 3-[{[6-({1-[5-(cyclopropylmethoxy)-3-methyl-1-benzofuran-2-yl]-2-methylpropyl}amino)pyridin-3-yl]carbonyl}(methyl)amino]propanoic acid], for which the inhibition at 10 µM came out at 70%.
As for `Cc1nn(-c2ccc(C(F)(F)F)cc2)cc1C(Nc1ccc(C(=O)NCCC(=O)O)cc1)C1CCCCC1` (stereo not shown) [Example 27, 3-[({4-[(cyclohexyl{3-methyl-1-[4-(trifluoromethyl)phenyl]-1H-pyrazol-4-yl}methyl)amino]phenyl}carbonyl)amino]propanoic acid], the inhibition at 10 µM is 70%.
Regarding `CCCCCCC(Nc1ccc(C(=O)NCCC(=O)O)cc1)c1cc2cc(Cl)ccc2n1-c1cccc(C(F)(F)F)c1` (stereo not shown) [Example A106, 3-[({4-[(1-{5-chloro-1-[3-(trifluoromethyl)phenyl]-1H-indol-2-yl}heptyl)amino]phenyl}carbonyl)amino]propanoic acid], the inhibition at 10 µM was found to be 69%.
Turning to `Cc1c(C(Nc2ccc(C(=O)N(C)CCC(=O)O)cc2)C2CCCCC2)oc2ccc(OCc3cccnc3)cc12` (stereo not shown) [Example A156, 3-[{[4-({cyclohexyl[3-methyl-5-(pyridin-3-ylmethoxy)-1-benzofuran-2-yl]methyl}amino)phenyl]carbonyl}(methyl)amino]propanoic acid], the inhibition at 10 µM worked out at 80%.
